Experimental findings from PubChem BioAssay AID1996 are described below.

Converted amounts (≈) assume the structure as drawn.

For the series the following is noted: buffer; pH 7.4; 200.0 µM.
Take `Cc1nc2ccc([N+](=O)[O-])cc2c(=O)n1Cc1ccc([N+](=O)[O-])cc1`: the solubility (kinetic) was 2.5 µg/mL (≈ 7.35 µM).
The same measure for `CCCn1cnc2cc(NC(=O)c3cccs3)ccc21`: over 42.8 µg/mL; for `Cc1cccc(-c2cc(C(=O)Nc3ccncc3)c3ccccc3n2)c1`: 0.8 µg/mL (≈ 2.36 µM); for `CC(C)CC(N=Cc1c(O)c2ccccc2oc1=O)C(=O)O` (stereo unspecified): over 45.5 µg/mL.
The same measure for `N=C1/C(=C/c2cccn2Cc2ccc(F)cc2)C(=O)N=C2SC=CN12`: under 0.2 µg/mL; for `COc1cc(NC(=O)c2ccccc2[N+](=O)[O-])ccc1NC(=O)c1cc2ccccc2o1`: 0.7 µg/mL (≈ 1.62 µM); for `Cc1ccc(Nc2nc(N)c([N+](=O)[O-])c(NCCO)n2)cc1C`: 2.1 µg/mL (≈ 6.6 µM).
In the case of `Cc1cc(C)nc(-n2ncc3c2CC(C)CC3=O)n1` (stereo unspecified) it was over 38.4 µg/mL.
Take `O=C(O)CCCC(=O)Nc1ccc2c(c1)oc1ccccc12`: the solubility (kinetic) was over 44.6 µg/mL.
In the case of `COc1ccc(OC)c(S(=O)(=O)Nc2cc(C)on2)c1` it was over 44.7 µg/mL; in that of `Cc1ccc(S(=O)(=O)NC(=O)Nc2ccc(C)cn2)cc1`, over 45.8 µg/mL.
`Cc1cc(C)c2nc(N(CCN(C)C)C(=O)/C=C/c3cccs3)sc2c1.Cl` showed a solubility (kinetic) of 0.9 µg/mL.
`CCCOC1CCCN(Cc2nc(-c3cnccn3)no2)C1` (stereo unspecified) displayed a kinetic solubility of 41.3 µg/mL (≈ 136 µM).
In the case of `CC(=O)c1ccccc1Oc1ncnc(N)c1[N+](=O)[O-]` it was over 41.1 µg/mL; in that of `Cc1ccc(OCCOC(=O)c2c(-c3ccccc3)noc2C)cc1`, under 0.7 µg/mL.
In the case of `CCOc1ccc(NC(=O)CN(C)C(=O)C2CCCC2)cc1OCC` it was 37.6 µg/mL (≈ 108 µM).
In the case of `CCC(=O)NNc1nc2c(F)cccc2s1` it was over 35.9 µg/mL.
The compound `CCN(CC)CCOC(=O)C(c1ccccc1)c1ccccc1.Cl` had a solubility (kinetic) of over 52.2 µg/mL.
For the compound `Cc1cccc(CC2S/C(=N/c3cccc(C)n3)NC2=O)c1` (stereo unspecified), the solubility (kinetic) was found to be 0.7 µg/mL (≈ 2.25 µM).
For the compound `COCCN(CCOC)C(=O)N1CCOCC1`, the kinetic solubility is over 36.9 µg/mL.
In the case of `O=C(OCCN=C1NS(=O)(=O)c2ccccc21)c1cccc([N+](=O)[O-])c1` it was 3 µg/mL (≈ 7.99 µM).
In the case of `O=C(NCCCn1ccnc1)c1ccc(OCC(F)(F)F)cc1` it was 43.4 µg/mL (≈ 133 µM).
In the case of `OC(CN1CCOCC1)Cn1cnc2ccccc21` (stereo unspecified) it was over 39.2 µg/mL.
`O=C(COC(=O)c1cccs1)Nc1ccc(Cl)cn1` showed a kinetic solubility of 3.1 µg/mL (≈ 10.4 µM).
The same measure for `Cl.O=C(CCN1CCN(c2ccccc2F)CC1)c1ccc(Br)cc1`: 42.3 µg/mL; for `Cc1ccc(-c2nc(-c3ccncc3)no2)cc1`: 1.1 µg/mL (≈ 4.64 µM); for `O=C(Nc1ncccc1O)c1ccc2c(c1)OCCO2`: over 40.8 µg/mL.
The same measure for `c1ccc(-c2nc3cccnc3nc2-c2ccccc2)cc1`: 33.1 µg/mL (≈ 117 µM); for `CN=C1S/C(=C\c2ccc(Cl)cc2)C(=O)N1C`: 1.2 µg/mL (≈ 4.5 µM); for `c1cc2c(cc1NC1CCCCCC1)OCO2`: 5.9 µg/mL (≈ 25.3 µM).
`Cc1ccc(C)c(NC(=S)NCc2ccccc2)c1` displayed a kinetic solubility of 40.2 µg/mL (≈ 149 µM).
As to `CN(C)C(=O)CS(=O)(=O)c1ccc(Cl)cc1`, the kinetic solubility stood at 32.7 µg/mL (≈ 125 µM). This solubility kinetic and that of the compound before are within 1.5-fold of each other.
`Cc1ccc(S(=O)(=O)N2CCOCC2)cc1NC(=O)COC(=O)c1ccc(Cl)s1` showed a kinetic solubility of 3 µg/mL (≈ 6.54 µM).
In the case of `CC(C)CC(Nc1ncnc2scc(-c3ccccc3)c12)C(=O)O` (stereo unspecified) it was over 51.2 µg/mL.
Compound `c1ccc(-c2ccc(-c3ccncn3)cc2)cc1` came in with a solubility (kinetic) of under 0.2 µg/mL.
For the compound `COc1cc(OC)cc(C(=O)Nc2ccc(Nc3ccccc3)cc2)c1`, the solubility (kinetic) is 2.5 µg/mL (≈ 7.18 µM).
In the case of `Cc1ccc2nc(-c3ccc(Br)cc3)cn2c1` it was under 0.3 µg/mL; in that of `CC(=O)Nc1ccccc1`, over 20.3 µg/mL; in that of `O=S(=O)(Nc1c(F)cccc1F)c1ccc2c(c1)OCCO2`, 2.5 µg/mL (≈ 7.64 µM).
Consider `O=C(CCCOc1ccccc1)NNC(=O)c1ccncc1`, for which the solubility (kinetic) is over 44.9 µg/mL.
Consider `Cc1ccc(S(=O)(=O)Nc2cccc(C(=O)NCC(c3ccc(F)cc3)N3CCOCC3)c2)cc1` (stereo unspecified), for which the solubility (kinetic) was 58.2 µg/mL (≈ 117 µM).
Take `Cc1csc(NC(=O)CN2C(=O)COc3ccc(Cl)cc32)n1`: the kinetic solubility was determined as 2.1 µg/mL (≈ 6.22 µM).
In the case of `COc1cc(/C=C(\CCC(=O)O)c2nc3ccccc3s2)ccc1OCC(=O)Nc1c(Cl)cccc1Cl`, the kinetic solubility worked out at 24.2 µg/mL (≈ 43.4 µM).
The same measure for `O=C(N/C(=C\c1ccccc1)C(=O)N1CCOCC1)c1ccco1`: over 49 µg/mL.
The same measure for `O=C(c1ccccc1)c1ccccc1N=Cc1c(O)[nH]c(=O)[nH]c1=O`: 3.8 µg/mL (≈ 11.3 µM).
For the compound `COc1ccc(NC(=O)CN2CC(C)OC(C)C2)cc1Cl` (stereo unspecified), the kinetic solubility was found to be 43 µg/mL (≈ 137 µM).
The compound `COc1ccc(NC(=O)CC(C)CC(=O)NCc2ccc(F)cc2)c(OC)c1` (stereo unspecified) showed a solubility (kinetic) of 6.8 µg/mL (≈ 17.5 µM).
As for `Cc1ccc(C)c(NS(=O)(=O)c2csc(C(N)=O)c2)c1`, the solubility (kinetic) is 36.3 µg/mL (≈ 117 µM).
As to `Cc1ccccc1NC(=O)CN1CCN(Cc2ccccc2)CC1`, the kinetic solubility was 44.3 µg/mL (≈ 137 µM).
On to `CC(=O)N1CCN(CC(=O)Nc2cc(F)ccc2C)CC1`, for which the kinetic solubility was over 44 µg/mL.
In the case of `CN1CCN(C(=O)CCC(=O)O)CC1` it was 26.5 µg/mL (≈ 132 µM).

For orientation: solubility (kinetic) means the concentration staying in solution when a stock, usually in DMSO, is diluted into the medium.
